From PMC11396746, “Stability Evaluation and Pharmacokinetic Profiling of Vepdegestrant in Rodents Using Liquid Chromatography–Tandem Mass Spectrometry” (Molecules, 2024) come the findings set out here.

This data set can be described thus: Adsorption investigation after pH stability test (microtube emptied, ACN added, vepdegestrant recovered). It is filed as physicochemical. As for the experimental part: The half-lives of vepdegestrant at pH values of 2, 4, 6, 7.4, 8, and 10 were 7.35, 0.77, 0.40, 0.50, 0.38, and 0.60 h, respectively. Sun et al. reported that the thalidomide ligand, a cereblon-targeting moiety of PROTAC, was rapidly degraded in phosphate-buffered saline (PBS; pH 7.4). The binder in vepdegestrant contained lenalidomide, a CRBN ligand with a chemical structure similar to that of thalidomide. In addition, Chen et al. reported that the glutarimide ring of lenalidomide is cleaved and degraded through non-enzymatic hydrolysis in aqueous solutions and hepatocytes at physiological pH [24]. However, this instability might be attributed to the adsorption of vepdegestrant onto the surfaces of experimental containers such as microtubes. A high proportion of organic solvent can prevent vepdegestrant from binding to the sample vial surface, and the possibility of adsorption exists because a buffer solution was used in this study. To investigate adsorption, after the pH stability test was completed, the incubation mixture was completely emptied, and ACN was added and thoroughly mixed. LC-MS/MS analysis includes MRM transitions for the expected hydrolysis product i.e., m/z 742.3 → 356.3, to detect the presence of degradation products. […] In contrast, hydrolysis may play a significant role at pH 10. Based on these findings, future studies should consider the selection of container materials and the use of organic solvents to minimize vepdegestrant adsorption.

Turning to `O=C1CC[C@H](N2Cc3cc(N4CCN(CC5CCN(c6ccc([C@@H]7c8ccc(O)cc8CC[C@@H]7c7ccccc7)cc6)CC5)CC4)ccc3C2=O)C(=O)N1` [vepdegestrant, Vepdegestrant], the “recovered vepdegestrant percentage (adsorbed to microtube, recovered with ACN)” value by setting is: (pH 2, after pH stability test) 21.8%; (pH 4, after pH stability test) 108.9%; (pH 6, after pH stability test) 105.1%; (pH 7.4, after pH stability test) 72.6%; (pH 8, after pH stability test) 63.9%; (pH 10, after pH stability test) 27.7%.
